In the NIST ThermoML archive (doi:10.1021/je200673a):

Assay: molar heat capacity at constant pressure
Conditions: 101.33 kPa, Crystal, Vacuum adiabatic calorimetry

C(#Cc1ccccc1)c1ccccc1 [1,2-diphenylethyne]
Conditions | molar heat capacity at constant pressure [J/K/mol]
50 K | 55.37
50.26 K | 55.73
50.82 K | 56.2
51.38 K | 56.69
51.94 K | 57.24
52.5 K | 57.84
53.06 K | 58.52
53.62 K | 59.22
54.18 K | 59.95
54.74 K | 60.54
55 K | 60.87
55.3 K | 61.31
55.87 K | 61.85
56.43 K | 62.34
56.99 K | 62.76
57.55 K | 63.28
58.11 K | 63.73
58.67 K | 64.14
59.23 K | 64.53
59.8 K | 64.94
60 K | 65.09
60.36 K | 65.36
60.92 K | 65.81
61.48 K | 66.28
62.04 K | 66.76
62.6 K | 67.25
63.16 K | 67.82
63.73 K | 68.11
64.29 K | 68.62
64.85 K | 68.97
65 K | 69.08
65.42 K | 69.41
65.98 K | 69.58
66.54 K | 69.95
67.11 K | 70.3
67.67 K | 70.73
68.23 K | 71.09
68.8 K | 71.47
69.36 K | 71.95
69.92 K | 72.22
70 K | 72.22
70.61 K | 72.52
71.41 K | 72.9
72.21 K | 73.45
73.01 K | 73.99
73.82 K | 74.48
74.62 K | 74.91
75 K | 75.15
75.42 K | 75.39
76.23 K | 75.72
77.03 K | 76.12
77.83 K | 76.43
78.64 K | 76.81
79.44 K | 77.36
80 K | 77.65
80.24 K | 77.8
81.05 K | 78.26
81.85 K | 78.59
82.56 K | 78.83
82.65 K | 79
83.36 K | 79.36
83.46 K | 79.49
84.16 K | 79.79
84.26 K | 79.97
84.96 K | 80.29
85 K | 80.26
85.77 K | 80.6
86.57 K | 81.07
87.37 K | 81.61
88.17 K | 81.87
88.98 K | 82.43
89.78 K | 82.92
90 K | 82.96
90.58 K | 83.29
91.39 K | 83.69
92.19 K | 84.3
92.99 K | 84.62
93.8 K | 85.08
94.6 K | 85.51
95 K | 85.79
95.4 K | 85.87
96.21 K | 86.49
97.01 K | 86.97
97.81 K | 87.46
98.61 K | 87.8
99.42 K | 88.33
100 K | 88.7
100.22 K | 88.79
101.02 K | 89.52
101.82 K | 89.71
102.62 K | 90.12
103.42 K | 90.81
104.22 K | 91.27
105.03 K | 91.64
105.84 K | 92.04
106.64 K | 92.61
107.45 K | 93.03
108.25 K | 93.65
109.06 K | 94.16
109.87 K | 94.48
110 K | 94.56
110.68 K | 94.84
111.49 K | 95.38
112.3 K | 95.96
113.12 K | 96.26
113.93 K | 96.77
114.74 K | 97.3
115.56 K | 97.84
116.37 K | 98.29
117.19 K | 98.7
118.01 K | 99.29
118.83 K | 99.69
119.65 K | 100.31
120 K | 100.39
120.47 K | 100.58
121.29 K | 101.29
122.11 K | 101.7
